Test results as given in US8952024B2, “Herbicidal pyrimidone derivatives” (E I du Pont de Nemours and Company, priority 2009, dated 2015).

Key:
Type in all cases: in vivo
[1] = system: canarygrass (Phalaris minor); assay: Test B postemergence plant response; settings: Postemergence
Source text: (§1) At the same time, plants selected from these crop and weed species and also winter barley (Hordeum vulgare), canarygrass (Phalaris minor), chickweed (Stellaria media) and windgrass (Apera spica-venti) were planted in pots containing Redi-Earth® planting medium (Scotts Company, 14111 Scottslawn Road, Marysville, Ohio 43041) comprising spaghnum peat moss, vermiculite, wetting agent and starter nutrients and treated with postemergence applications of some of the test chemicals formulated in the same manner. Plants ranged in height from 2 to 18 cm (1- to 4-leaf stage) for postemergence treatments.
(§2) Treated plants and controls were maintained in a greenhouse for 13 to 15 days, after which time all treated plants were visually evaluated and compared to controls. Plant response ratings, summarized in Table B, are based on a scale of 0 to 100 where 0 is no effect and 100 is complete control. A dash (-) response means no test result.

[2] = system: windgrass (Apera spica-venti); assay: Test B postemergence plant response; settings: Postemergence
Source text: as §1, §2

[3] = system: chickweed (Stellaria media); assay: Test B postemergence plant response; settings: Postemergence
Source text: as §1, §2

[4] = system: winter barley (Hordeum vulgare); assay: Test B postemergence plant response; settings: for Plant response rating, Barley: Postemergence
Source text: as §1, §2

[5] = system: lambsquarters (Chenopodium album); assay: Test B pre-/postemergence plant response; settings: Postemergence
Source text: (§3) Seeds of plant species selected from blackgrass (Alopecurus myosuroides), downy bromegrass (Bromus tectorum), green foxtail (Setaria viridis), Italian ryegrass (Lolium multiflorum), wheat (Triticum aestivum), wild oat (Avena fatua), deadnettle (henbit deadnettle, Lamium amplexicaule), galium (catchweed bedstraw, Galium aparine), bermudagrass (Cynodon dactylon), Surinam grass (Brachiaria decumbens), cocklebur (Xanthium strumarium), corn (Zea mays), large crabgrass (Digitaria sanguinalis), woolly cupgrass (Eriochloa villosa), giant foxtail (Setaria faberii), goosegrass (Eleusine indica), johnsongrass (Sorghum halepense), kochia (Kochia scoparia), lambsquarters (Chenopodium album), morningglory (Ipomoea coccinea), nightshade (eastern black nightshade, Solanum ptycanthum), yellow nutsedge (Cyperus esculentus), pigweed (Amaranthus retroflexus), ragweed (common ragweed, Ambrosia elatior), Russian thistle (Salsola kali), soybean (Glycine max), sunflower (common oilseed sunflower, Helianthus annuus) and velvetleaf (Abutilon theophrasti) were planted into a blend of loam soil and sand and treated preemergence with test compounds formulated in a non-phytotoxic solvent mixture which included a surfactant.
as §1, §2

[6] = system: wild oat (Avena fatua); assay: Test B pre-/postemergence plant response; settings: Postemergence
Source text: as §3, §1, §2

[7] = system: large crabgrass (Digitaria sanguinalis); assay: Test B pre-/postemergence plant response; settings: Postemergence
Source text: as §3, §1, §2

[8] = system: soybean (Glycine max); assay: Test B pre-/postemergence plant response; settings: Postemergence
Source text: as §3, §1, §2

[9] = system: woolly cupgrass (Eriochloa villosa); assay: Test B pre-/postemergence plant response; settings: Postemergence
Source text: as §3, §1, §2

[10] = system: ragweed (common ragweed, Ambrosia elatior); assay: Test B pre-/postemergence plant response; settings: Postemergence
Source text: as §3, §1, §2

[11] = system: velvetleaf (Abutilon theophrasti); assay: Test B pre-/postemergence plant response; settings: Postemergence
Source text: as §3, §1, §2

[12] = system: bermudagrass (Cynodon dactylon); assay: Test B pre-/postemergence plant response; settings: for Plant response rating, Bermudagrass: Postemergence
Source text: as §3, §1, §2

[13] = system: yellow nutsedge (Cyperus esculentus); assay: Test B pre-/postemergence plant response; settings: Postemergence
Source text: as §3, §1, §2

[14] = system: johnsongrass (Sorghum halepense); assay: Test B pre-/postemergence plant response; settings: Postemergence
Source text: as §3, §1, §2

[15] = system: blackgrass (Alopecurus myosuroides); assay: Test B pre-/postemergence plant response; settings: for Plant response rating, Blackgrass: Postemergence
Source text: as §3, §1, §2

[16] = system: corn (Zea mays); assay: Test B pre-/postemergence plant response; settings: Postemergence
Source text: as §3, §1, §2

[17] = system: Italian ryegrass (Lolium multiflorum); assay: Test B pre-/postemergence plant response; settings: Postemergence
Source text: as §3, §1, §2

[18] = 31 g ai/ha, 0 to 100 scale (0 no effect, 100 complete control)
[19] = 125 g ai/ha, scale 0 to 100 (0 no effect, 100 complete control)
[20] = 62 g ai/ha, postemergence, 0 is no effect, 100 is complete control, 13 to 15 days

## O=C1CCCC(O)=C1C(=O)c1cnc(-c2ccccc2)n(C2CC[S+]([O-])CC2)c1=O (mixture of isomers) [Compound 169, 5-[(2-hydroxy-6-oxo-1-cyclohexen-1-yl)carbonyl]-2-phenyl-3-(trans/cis-tetrahydro-1-oxido-2H-thiopyran-4-yl)-4(3H)-pyrimidinone]
[1]; 16 g ai/ha, 0 to 100 scale
  Plant response rating, Canarygrass: 5
[1]; [18]
  Plant response rating, Canarygrass: 40
[1]; [19]
  Plant response rating, Canarygrass: 80
[2]; 16 g ai/ha, 0 to 100 scale
  Plant response rating, Windgrass: 5
[2]; [18]
  Plant response rating, Windgrass: 15
[2]; [19]
  Plant response rating, Windgrass: 55
[3]; 16 g ai/ha, 0 to 100 scale
  Plant response rating, Chickweed: 90
[3]; [18]
  Plant response rating, Chickweed: 100
[3]; [19]
  Plant response rating, Chickweed: 100
[4]; 16 g ai/ha, 0 to 100 scale
  Plant response rating, Barley: 0
[4]; [20]
  Barley plant response rating (0 to 100 scale): 0
[4]; [18]
  Plant response rating, Barley: 0
[4]; [19]
  Plant response rating, Barley: 0
[5]; 16 g ai/ha, 0 to 100 scale
  Plant response rating, Lambsquarters: 95
[5]; [18]
  Plant response rating, Lambsquarters: 100
[5]; [19]
  Plant response rating, Lambsquarters: 100
[6]; 16 g ai/ha, 0 to 100 scale
  Plant response rating, Oat, Wild: 0
[6]; [18]
  Plant response rating, Oat, Wild: 0
[6]; [19]
  Plant response rating, Oat, Wild: 85
[7]; 16 g ai/ha, 0 to 100 scale
  Plant response rating, Crabgrass, Large: 75
[7]; [18]
  Plant response rating, Crabgrass, Large: 85
[7]; [19]
  Plant response rating, Crabgrass, Large: 100
[8]; 16 g ai/ha, 0 to 100 scale
  Plant response rating, Soybean: 55
[8]; [18]
  Plant response rating, Soybean: 90
[8]; [19]
  Plant response rating, Soybean: 95
[9]; 16 g ai/ha, 0 to 100 scale
  Plant response rating, Cupgrass, Woolly: 75
[9]; [18]
  Plant response rating, Cupgrass, Woolly: 85
[9]; [19]
  Plant response rating, Cupgrass, Woolly: 100
[10]; 16 g ai/ha, 0 to 100 scale
  Plant response rating, Ragweed: 98
[10]; [18]
  Plant response rating, Ragweed: 100
[10]; [19]
  Plant response rating, Ragweed: 100
[11]; 16 g ai/ha, 0 to 100 scale
  Plant response rating, Velvetleaf: 75
[11]; [18]
  Plant response rating, Velvetleaf: 100
[11]; [19]
  Plant response rating, Velvetleaf: 100
[12]; 16 g ai/ha, 0 to 100 scale
  Plant response rating, Bermudagrass: 70
[12]; [20]
  Bermudagrass plant response rating (0 to 100 scale): 75
[12]; [18]
  Plant response rating, Bermudagrass: 70
[12]; [19]
  Plant response rating, Bermudagrass: 100
[13]; 16 g ai/ha, 0 to 100 scale
  Plant response rating, Nutsedge, Yellow: 0
[13]; [18]
  Plant response rating, Nutsedge, Yellow: 0
[13]; [19]
  Plant response rating, Nutsedge, Yellow: 55
[14]; 16 g ai/ha, 0 to 100 scale
  Plant response rating, Johnsongrass: 40
[14]; [18]
  Plant response rating, Johnsongrass: 60
[14]; [19]
  Plant response rating, Johnsongrass: 65
[15]; 16 g ai/ha, 0 to 100 scale
  Plant response rating, Blackgrass: 0
[15]; [20]
  Blackgrass plant response rating (0 to 100 scale): 5
[15]; [18]
  Plant response rating, Blackgrass: 5
[15]; [19]
  Plant response rating, Blackgrass: 10
[16]; 16 g ai/ha, 0 to 100 scale
  Plant response rating, Corn: 20
[16]; [18]
  Plant response rating, Corn: 45
[16]; [19]
  Plant response rating, Corn: 55
[17]; 16 g ai/ha, 0 to 100 scale
  Plant response rating, Ryegrass, Italian: 0
[17]; [18]
  Plant response rating, Ryegrass, Italian: 0
[17]; [19]
  Plant response rating, Ryegrass, Italian: 10
